Experimental findings from patent publication US20240425453A1, “ISOINDOLINES AS PMS2 INHIBITORS” (NeoPhore Limited, priority 2021, published 2024) are described below.

Where a name gives a salt, the structure may show the parent alone.

In the assay the target is recombinant N-terminal PMS2 (residues 1-365) (Homo sapiens (Human), UniProt P54278). Nature of the assay: Fluorescence polarisation assay for PMS2. It counts as binding. The following applies: 10 nM N-terminal PMS2, 5 nM fluorescent probe compound; 30 min pre-incubation, read after 1 hour at room temperature. (In general: Polarisation of emitted light reports the rotation of a fluorescent probe.)
Sequence of recombinant N-terminal PMS2 (residues 1-365) (P54278 1-365): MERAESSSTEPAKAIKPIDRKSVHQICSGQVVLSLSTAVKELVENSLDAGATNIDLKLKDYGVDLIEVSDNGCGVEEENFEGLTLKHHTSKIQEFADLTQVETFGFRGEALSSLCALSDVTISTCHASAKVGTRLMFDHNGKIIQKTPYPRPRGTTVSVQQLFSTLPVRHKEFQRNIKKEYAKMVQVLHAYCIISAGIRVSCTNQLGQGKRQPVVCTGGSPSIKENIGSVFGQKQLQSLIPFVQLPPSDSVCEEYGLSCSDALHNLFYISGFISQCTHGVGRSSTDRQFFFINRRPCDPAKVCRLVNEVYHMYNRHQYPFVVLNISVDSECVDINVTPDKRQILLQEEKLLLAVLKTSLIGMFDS
One may read the IC50 as the concentration that gives 50% inhibition. Turning to `COc1c(C)c(O)cc(O)c1C(=O)N1Cc2cccc(OC/C=C/C(=O)N(C)C)c2C1` [Example 35, (E)-4-((2-(4,6-Dihydroxy-2-methoxy-3-methylbenzoyl)isoindolin-4-yl)oxy)-N,N-dimethylbut-2-enamide], the 50% inhibitory concentration (IC50) lay in the range of 100 to 1000 nM. Next, `Cc1c(O)cc(O)c(C(=O)N2CCc3cccc(NC(=O)/C=C/CN(C)C)c3C2)c1OCC1CCCCC1` [Example 20, (E)-N-[2-[2-(Cyclohexylmethoxy)-4,6-dihydroxy-3-methyl-benzoyl]-3,4-dihydro-1H-isoquinolin-8-yl]-4-(dimethylamino)but-2-enamide]: 100 to 1000 nM. As to `COc1c(C)c(O)cc(O)c1C(=O)N1CCc2ccc(N(C)C(=O)/C=C/CN(C)C)cc2C1` [Example 29, (E)-N-[2-(4,6-dihydroxy-2-methoxy-3-methyl-benzoyl)-3,4-dihydro-1H-isoquinolin-7-yl]-4-(dimethylamino)-N-methyl-but-2-enamide], the IC50 was in the range of 100 to 1000 nM. On to `C=CC(=O)Nc1cccc2c1CN(C(=O)c1c(O)cc(O)c(C)c1OCC1CCCCC1)CC2` [Example 17, N-[2-[2-(Cyclohexylmethoxy)-4,6-dihydroxy-3-methyl-benzoyl]-3,4-dihydro-1H-isoquinolin-8-yl]prop-2-enamide], for which the IC50 fell in the range of 100 to 1000 nM. Consider `COc1c(C)c(O)cc(O)c1C(=O)N1Cc2cccc(N(C)C(=O)/C=C/CN(C)C)c2C1` [Example 25, (E)-N-[2-(4,6-Dihydroxy-2-methoxy-3-methyl-benzoyl)isoindolin-4-yl]-4-(dimethylamino)-N-methyl-but-2-enamide], for which the IC50 was less than 100 nM. As to `CC#CC(=O)Nc1cccc2c1CN(C(=O)c1c(O)cc(O)c(C)c1OCC1CCCCC1)C2` [Example 12, N-(2-(2-(Cyclohexylmethoxy)-4,6-dihydroxy-3-methylbenzoyl)isoindolin-4-yl)but-2-ynamide], the IC50 was 100 to 1000 nM. For `Cc1c(O)cc(O)c(C(=O)N2Cc3cccc(N(C)C(=O)/C=C/CN(C)C)c3C2)c1OCC1CC1` [Example 31, (E)-N-[2-[2-(Cyclopropylmethoxy)-4,6-dihydroxy-3-methyl-benzoyl]isoindolin-4-yl]-4-(dimethylamino)-N-methyl-but-2-enamide], the IC50 lay in the range of 100 to 1000 nM.

In the case of `C=C(CN1CCOCC1)C(=O)Nc1cccc2c1CN(C(=O)c1c(O)cc(O)c(C)c1OC)C2` [Example 37, N-(2-(4,6-Dihydroxy-2-methoxy-3-methylbenzoyl)isoindolin-4-yl)-2-(morpholinomethyl)acrylamide], the IC50 fell in the range of 100 to 1000 nM.

Consider `C=C(F)C(=O)Nc1cccc2c1CN(C(=O)c1c(O)cc(O)c(C)c1OCc1ccccc1)C2` [Example 5, N-(2-(2-(Benzyloxy)-4,6-dihydroxy-3-methylbenzoyl)isoindolin-4-yl)-2-fluoroacrylamide], for which the IC50 is more than 1000 nM. As for `COc1c(C)c(O)cc(O)c1C(=O)N1Cc2ccc(NC(=O)/C=C/CN(C)C)cc2C1` [Example 26, (E)-N-[2-(4,6-Dihydroxy-2-methoxy-3-methyl-benzoyl)isoindolin-5-yl]-4-(dimethylamino)but-2-enamide], the IC50 was in the range of 100 to 1000 nM. Take `C=CC(=O)N(C)c1cccc2c1CN(C(=O)c1c(O)cc(O)c(C)c1OC)C2` [Example 32, N-[2-(4,6-dihydroxy-2-methoxy-3-methyl-benzoyl)isoindolin-4-yl]-N-methyl-prop-2-enamide]: the IC50 is 100 to 1000 nM.

Consider `Cc1c(O)cc(O)c(C(=O)N2Cc3cccc(NC(=O)/C=C/CN(C)C)c3C2)c1OCc1ccccc1` [Example 6, (E)-N-(2-(2-(Benzyloxy)-4,6-dihydroxy-3-methylbenzoyl)isoindolin-4-yl)-4-(dimethylamino)but-2-enamide], for which the IC50 was less than 100 nM. Regarding `Cc1c(O)cc(O)c(C(=O)N2Cc3cccc(NC(=O)/C=C/CN(C)C)c3C2)c1OCC1CC1` [Example 24, (E)-N-[2-[2-(cyclopropylmethoxy)-4,6-dihydroxy-3-methyl-benzoyl]isoindolin-4-yl]-4-(dimethylamino)but-2-enamide], the IC50 was less than 100 nM. As for `Cc1c(O)cc(O)c(C(=O)N2Cc3cccc(NC(=O)/C=C/CN(C)C)c3C2)c1OCC1CCCCC1` [Example 8, (E)-N-(2-(2-(cyclohexylmethoxy)-4,6-dihydroxy-3-methylbenzoyl)isoindolin-4-yl)-4-(dimethylamino)but-2-enamide], the IC50 is less than 100 nM. Consider `COc1c(C)c(O)cc(O)c1C(=O)N1Cc2ccc(OC/C=C/C(=O)N(C)C)cc2C1` [Example 34, (E)-4-[2-(4,6-Dihydroxy-2-methoxy-3-methyl-benzoyl)isoindolin-5-yl]oxy-N,N-dimethyl-but-2-enamide], for which the concentration for half-maximal inhibition (IC50) fell in the range of 100 to 1000 nM. Regarding `Cc1c(O)cc(O)c(C(=O)N2Cc3cccc(NC(=O)/C=C/CN4CCOCC4)c3C2)c1OCC1CCCCC1` [Example 10, (E)-N-(2-(2-(cyclohexylmethoxy)-4,6-dihydroxy-3-methylbenzoyl)isoindolin-4-yl)-4-morpholinobut-2-enamide hydrochloride], the half-maximal inhibitory concentration (IC50) was less than 100 nM. Consider `Cc1c(O)cc(O)c(C(=O)N2Cc3cccc(NC(=O)/C=C/CN4CCCC4)c3C2)c1OCC1CCCCC1` [Example 9, (E)-N-(2-(2-(Cyclohexylmethoxy)-4,6-dihydroxy-3-methylbenzoyl)isoindolin-4-yl)-4-(pyrrolidin-1-yl)but-2-enamide], for which the IC50 is less than 100 nM. Consider `C=CC(=O)Nc1ccc2c(c1)CN(C(=O)c1c(O)cc(O)c(C)c1OCC1CCCCC1)C2` [Example 16, N-[2-[2-(Cyclohexylmethoxy)-4,6-dihydroxy-3-methyl-benzoyl]isoindolin-5-yl]prop-2-enamide], for which the 50% inhibitory concentration (IC50) was less than 100 nM. Consider `C=CC(=O)Nc1ccc2c(c1)CN(C(=O)c1c(O)cc(O)c(C)c1OCC1CCCCC1)CC2` [Example 18, N-[2-[2-(Cyclohexylmethoxy)-4,6-dihydroxy-3-methyl-benzoyl]-3,4-dihydro-1H-isoquinolin-7-yl]prop-2-enamide], for which the IC50 is less than 100 nM. `C=C(F)C(=O)Nc1cccc2c1CN(C(=O)c1c(O)cc(O)cc1OCc1ccccc1)C2` [Example 3, N-(2-(2-(Benzyloxy)-4,6-dihydroxy-benzoyl)isoindolin-4-yl)-2-fluoroacrylamide]: the half-maximal inhibitory concentration (IC50) was more than 1000 nM. For `C=CC(=O)Nc1cccc2c1CN(C(=O)c1c(O)cc(O)c(C)c1OCC1CCCCC1)C2` [Example 7, N-(2-(2-(Cyclohexylmethoxy)-4,6-dihydroxy-3-methylbenzoyl)isoindolin-4-yl) acrylamide], the half-maximal inhibitory concentration (IC50) was less than 100 nM. Turning to `CCOc1c(C)c(O)cc(O)c1C(=O)N1Cc2cccc(N(C)C(=O)/C=C/CN(C)C)c2C1` [Example 33, (E)-4-(Dimethylamino)-N-(2-(2-ethoxy-4,6-dihydroxy-3-methylbenzoyl)isoindolin-4-yl)-N-methylbut-2-enamide], the IC50 is less than 100 nM. As to `COc1c(C)c(O)cc(O)c1C(=O)N1CCc2ccc(NC(=O)/C=C/CN(C)C)cc2C1` [Example 28, (E)-N-[2-(4,6-dihydroxy-2-methoxy-3-methyl-benzoyl)-3,4-dihydro-1H-isoquinolin-7-yl]-4-(dimethylamino)but-2-enamide], the IC50 lay within 100 to 1000 nM.

As for `Cc1c(O)cc(O)c(C(=O)N2Cc3ccc(NC(=O)/C=C/CN(C)C)cc3C2)c1OCC1CCCCC1` [Example 19, (E)-N-[2-[2-(Cyclohexylmethoxy)-4,6-dihydroxy-3-methyl-benzoyl]isoindolin-5-yl]-4-(dimethylamino)but-2-enamide], the half-inhibitory concentration (IC50) fell in the range of 100 to 1000 nM. Regarding `C/C=C/C(=O)Nc1cccc2c1CN(C(=O)c1c(O)cc(O)c(C)c1OCC1CCCCC1)C2` [Example 13, (E)-N-(2-(2-(Cyclohexylmethoxy)-4,6-dihydroxy-3-methylbenzoyl)isoindolin-4-yl)but-2-enamide], the 50% inhibitory concentration (IC50) is more than 1000 nM. For the compound `C=CC(=O)Nc1cccc2c1CN(C(=O)c1c(O)cc(O)c(C)c1OCc1ccccc1)C2` [Example 4, N-(2-(2-(Benzyloxy)-4,6-dihydroxy-3-methylbenzoyl)isoindolin-4-yl)acrylamide], the IC50 is less than 100 nM. With `CCOc1c(C)c(O)cc(O)c1C(=O)N1Cc2cccc(NC(=O)/C=C/CN(C)C)c2C1` [Example 22, (E)-4-(Dimethylamino)-N-[2-(2-ethoxy-4,6-dihydroxy-3-methyl-benzoyl)isoindolin-4-yl]but-2-enamide], the concentration for half-maximal inhibition (IC50) is less than 100 nM. Take `C=CC(=O)Nc1cccc2c1CN(C(=O)c1c(O)cc(O)cc1OCc1ccccc1)C2` [Example 1, N-(2-(2-(Benzyloxy)-4,6-dihydroxybenzoyl)isoindolin-4-yl)acrylamide]: the IC50 is 100 to 1000 nM. In the case of `COc1c(C)c(O)cc(O)c1C(=O)N1Cc2ccc(N(C)C(=O)/C=C/CN(C)C)cc2C1` [Example 27, (E)-N-[2-(4,6-dihydroxy-2-methoxy-3-methyl-benzoyl)isoindolin-5-yl]-4-(dimethylamino)-N-methyl-but-2-enamide], the IC50 is 100 to 1000 nM. Consider `Cc1c(O)cc(O)c(C(=O)N2Cc3cccc(NC(=O)/C=C/CN(C)C)c3C2)c1OCC1CCCC1` [Example 14, (E)-N-[2-[2-(Cyclopentylmethoxy)-4,6-dihydroxy-3-methyl-benzoyl]isoindolin-4-yl]-4-(dimethylamino)but-2-enamide], for which the 50% inhibitory concentration (IC50) was less than 100 nM.

As to `CN(C)C/C=C/C(=O)Nc1cccc2c1CN(C(=O)c1c(O)cc(O)cc1OCc1ccccc1)C2` [Example 2, (E)-N-(2-(2-(Benzyloxy)-4,6-dihydroxybenzoyl)isoindolin-4-yl)-4-(dimethylamino)but-2-enamide], the IC50 was less than 100 nM. `Cc1c(O)cc(O)c(C(=O)N2Cc3cccc(NC(=O)/C=C/CN(C)C)c3C2)c1OCC(F)(F)F` [Example 23, (E)-N-[2-[4,6-Dihydroxy-3-methyl-2-(2,2,2-trifluoroethoxy)benzoyl]isoindolin-4-yl]-4-(dimethylamino)but-2-enamide]: the IC50 was less than 100 nM.

As to `Cc1c(O)cc(O)c(C(=O)N2CCc3ccc(NC(=O)/C=C/CN(C)C)cc3C2)c1OCC1CCCCC1` [Example 21, (E)-N-[2-[2-(Cyclohexylmethoxy)-4,6-dihydroxy-3-methyl-benzoyl]-3,4-dihydro-1H-isoquinolin-7-yl]-4-(dimethylamino)but-2-enamide], the half-maximal inhibitory concentration (IC50) is less than 100 nM.
